From US4897490A, “Antihypercholesterolemic tetrazole compounds” (Bristol-Meyers Company, priority 1988, dated 1990)
Where two headings read alike, the source gives them in different places.

Assays:
[1] = tested on: Isolated Hepatocyte Cholesterol Biosynthesis; test: Test B: Isolated Hepatocyte Cholesterol Biosynthesis Assay; format: cell-based, male Wistar rats; details: isolated rat hepatocytes, 10 min preincubation, 60 minutes at 37°, incorporation into sterols, read-out: Inhibition of Isolated Hepatocyte Cholesterol Biosynthesis IC50
Procedure: Test B: Isolated Hepatocyte Cholesterol Biosynthesis Assay:
Intact parenchymal hepatocytes were isolated from male Wistar rats (180-280 g) fed cholestyramine-containing or normal diet, using the collagenase perfusion method essentially as described by Seglen, in Methods in Cell Biology (D. Prescott, ed.) Vol. 13, pp. 29-83, Academic Press, New York (1976). Cell preparations were used only when viability (trypan blue exclusion) exceeded 90%. Cholesterol biosynthesis was determined as the incorporation by hepatocytes of ^3 H from [^3 H]-water into total (cellular plus medium) 3β-hydroxy sterols as per Ingebritsen, et al., J. Biol. Chem., 254, 9986-9989 (1979). Hepatocyte sterols and lipids were isolated by a modification of the methods described by Kates, in Techniques in Lipidology, (M. Kates, ed.), pp. 349, 360-363, North Holland Publ. Co., Amsterdam, 1972. […] The ^3 H-labelled sterols are quantified by liquid scintillation and corrected for counting efficiency. […]
Cells were preincubated for 10 minutes with or without aliquots of test compounds added as water solutions of sodium salts or as dimethylsulfoxide solutions of lactones. […] The IC50 for inhibition of sterol synthesis by test compounds which is shown in Table 2 was calculated from the linear regression curve of % inhibition (compared to controls) vs. log concentration using at least 4 concentrations of inhibitor. […]

[2] = tested on: de novo biosynthesis of cholesterol; test: Test C: In Vivo Acute Cholesterol Biosynthesis Inhibition in Rats; design: species or system male Wistar rats; details: Rattus norvegicus, 1 h
Procedure: Test C: In Vivo Acute Cholesterol Biosynthesis Inhibition in Rats:
Male Wistar rats (160-200 g, housed 2 per cage) were maintained on normal diet (Purina Rat Chow and water, ad libitum) for at least 7 days on a reversed lighting schedule (7:00 a.m. to 5:00 p.m. dark). Food was removed 15 hours prior to dosing. Compounds were administered at 8:00 a.m. by intragastric intubation using 0.5-1.0 mL of water or propylene glycol solutions of sodium salts, lactones, or esters of the test compounds. Controls received equal volumes of the vehicle.
Thirty minutes after receiving the test substances, rats were injected intraperitoneally with 0.9 mL of 0.9% NaCl containing approximately 120 μCi per kg body weight of sodium [1-^14 C] acetate (1-3 mCi/mmol). After a 60 minute incorporation period, rats were sacrificed and liver and blood samples were obtained. Aliquots of plasma (1.0 mL) obtained by centrifugation of heparin+EDTA-treated blood, and aliquots of liver homogenates (equivalent to 0.50 g liver wet weight) were taken for determination of radiolabeled 3β-hydroxy sterols. Sterol isolation for the liver samples followed the method of Kates as described above for the hepatocyte procedure (Test B) while the plasma samples were directly saponified followed by isolation of the digitonin-precipitable sterols. ^14 C-labelled sterols were quantified by liquid scintillation counting (efficiency corrected). Mean percent inhibition of ^14 C incorporated into liver and into plasma cholesterol were calculated for groups of treated animals and compared to mean values for controls conducted simultaneously.
Therefore, Test C provides information on the ability of test substances to suppress the de novo biosynthesis of cholesterol in vivo in rats with oral dosing.

[3] = target: T1, rat liver HMG-CoA reductase (Rattus norvegicus, UniProt P51639); test: Test A: In Vitro Inhibition of Microsomal HMG-CoA Reductase; format: biochemical; details: microsomal rat liver enzyme; [3-14C]-HMG-CoA 0.33 mM, NADPH 3.0 mM; pH 7.2
T1 construct: from tissue; host or cells: rat liver microsomes
T1 sequence (P51639 1-887): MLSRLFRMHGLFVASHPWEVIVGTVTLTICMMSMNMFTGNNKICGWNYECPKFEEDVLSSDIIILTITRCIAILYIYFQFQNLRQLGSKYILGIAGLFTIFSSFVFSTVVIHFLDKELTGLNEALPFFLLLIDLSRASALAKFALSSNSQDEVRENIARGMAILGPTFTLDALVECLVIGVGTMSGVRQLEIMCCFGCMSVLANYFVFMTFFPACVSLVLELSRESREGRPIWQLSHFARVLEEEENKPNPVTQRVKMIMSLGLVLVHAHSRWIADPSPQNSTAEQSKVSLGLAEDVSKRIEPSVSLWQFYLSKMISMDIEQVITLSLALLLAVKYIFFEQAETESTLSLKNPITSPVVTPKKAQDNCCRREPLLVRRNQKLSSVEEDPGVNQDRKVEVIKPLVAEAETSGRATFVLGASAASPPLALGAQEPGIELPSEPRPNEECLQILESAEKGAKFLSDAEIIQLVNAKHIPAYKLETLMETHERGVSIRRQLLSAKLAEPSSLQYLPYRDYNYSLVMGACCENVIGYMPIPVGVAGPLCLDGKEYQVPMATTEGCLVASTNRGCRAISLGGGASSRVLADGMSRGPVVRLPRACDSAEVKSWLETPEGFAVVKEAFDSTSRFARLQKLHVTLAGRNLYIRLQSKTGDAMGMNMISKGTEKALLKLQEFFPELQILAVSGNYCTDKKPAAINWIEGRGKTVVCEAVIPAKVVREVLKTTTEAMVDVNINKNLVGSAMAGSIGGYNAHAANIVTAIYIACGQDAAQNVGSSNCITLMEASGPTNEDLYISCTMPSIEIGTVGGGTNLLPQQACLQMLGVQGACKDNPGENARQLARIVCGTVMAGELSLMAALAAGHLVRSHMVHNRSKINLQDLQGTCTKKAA
Procedure: Test A: In Vitro Inhibition of Microsomal HMG-CoA Reductase:
The intact, fully activated microsomal form of rat liver HMG-CoA reductase (subunit MW ca 100,000 daltons) was prepared as described by Parker, et al., Biochem. Biophys. Res. Commun., 125, 629-635 (1984), and used as the source of enzyme for assays. HMG-CoA reductase activity was determined essentially by the method of Shapiro, et al., Biochem. Biophys. Acta., 370, 369-377 (1974), with modifications as described by Ingebritsen and Gibson, Meth. Enzymol. 71, 486-497 (1981) with the exception that the internal standard ^3 H-mevalonolactone is added after termination of the assay. In this procedure, the enzyme is assayed by measuring the formation of product, ^14 C-mevalonate, from the substrate, [3-^14 C]-HMG-CoA, in the presence of NADPH. The ^14 C-mevalonate is converted to its lactone and isolated by silica thin-layer chromatography (Whatman LK5D, developed in 50:50 benzene:acetone) in the presence of ^3 H-mevalonolactone as an internal standard. Assays were conducted under conditions in which product formation was linear with respect to time and enzyme concentration.
To measure reductase inhibition, test compounds dissolved in water or dimethylsulfoxide and diluted in buffer A (50 mM imidazole-HCl, 250 mM NaCl, 1 mM EDTA, 1 mM EGTA, 5 mM DTT, 20 μM leupeptin, pH=7.2) were incubated with aliquots of microsomes (80-160 μg protein in buffer A) followed by addition of d,1-[3-^14 C]-HMG-CoA (0.33 mM, 2.0 dpm/picomole) and NADPH (3.0 mM). The 50 percent inhibitory concentration (IC50) for each compound in Table 1 was calculated from the linear regression line of the percent decrease (from control) in enzyme activity vs. log concentration of inhibitor, determined using at least 4 dilutions of each test compound assayed in duplicate.

| SMILES | IC50 [3] | IC50 [1] | ED50 ([2]; oral (intragastric), 14C-acetate incorporation 60 minutes, read-out: ED50 value (reference agent, tissue not stated)) | ED50 ([2]; read-out: 50% Inhibitory Dose (ED50), liver cholesterol, oral (intragastric), liver, 14C-acetate incorporation 60 minutes) | ED50 ([2]; read-out: 50% Inhibitory Dose (ED50), plasma cholesterol, oral (intragastric), plasma, 14C-acetate incorporation 60 minutes) |
| --- | --- | --- | --- | --- | --- |
| CC[C@H](C)C(=O)O[C@H]1C[C@@H](C)C=C2C=C[C@H](C)[C@H](CC[C@@H]3C[C@@H](O)CC(=O)O3)[C@H]21 [Mevinolin (Lovastatin), reference compound] |  | 0.046 ± 0.026 µM | 0.04 mg/kg |  |  |
| Cn1nnnc1C(/C=C/C=C/[C@@H](O)C[C@@H](O)CC(=O)O)=C(c1ccc(F)cc1)c1ccc(F)cc1 (relative stereo) [Example 15, Sodium (±)-erythro-11,11-bis(4-fluorophenyl)-3,5-dihydroxy-10-(1-methyl-1H-tetrazol-5-yl)-6,8,10-undecatrienoate] | 5.7 µM |  |  |  |  |

The next lines start with results.

| IC50 [3] | SMILES | IC50 [1] | ED50 ([2]; oral (intragastric), 14C-acetate incorporation 60 minutes, read-out: ED50 value (reference agent, tissue not stated)) | ED50 ([2]; read-out: 50% Inhibitory Dose (ED50), liver cholesterol, oral (intragastric), liver, 14C-acetate incorporation 60 minutes) | ED50 ([2]; read-out: 50% Inhibitory Dose (ED50), plasma cholesterol, oral (intragastric), plasma, 14C-acetate incorporation 60 minutes) |
| --- | --- | --- | --- | --- | --- |
| 1.09 ± 0.29 µM | Cn1nnnc1C(/C=C/[C@@H]1C[C@@H](O)CC(=O)O1)=C(c1ccc(F)cc1)c1ccc(F)cc1 (relative stereo) [Example 13, Trans-6-[4,4-bis(4-fluorophenyl)-3-(1-methyl-1H-tetrazol-5-yl)-1,3-butadienyl]-tetrahydro-4-hydroxy-2H-pyran-2-one] |  |  |  |  |
| > 330 µM | CCOC(=O)C[C@H](O)C[C@H](O)/C=C/C(=C(c1ccc(F)cc1)c1ccc(F)cc1)c1nnnn1C (relative stereo) [Example 11, Ethyl (±)-erythro-9,9-bis(4-fluorophenyl)-3,5-dihydroxy-8-(1-methyl-1H-tetrazol-5-yl)-6,8-nonadienoate] |  |  |  |  |
| 0.037 ± 0.01 µM | Cn1nnnc1C(/C=C/[C@@H](O)C[C@@H](O)CC(=O)O)=C(c1ccc(F)cc1)c1ccc(F)cc1 (relative stereo) [Example 12, Sodium (±)-erythro-9,9-bis(4-fluorophenyl)-3,5-dihydroxy-8-(1-methyl-1H-tetrazol-5-yl)-6,8-nonadionate] | 0.023 ± 0.011 µM |  | 0.08 mg/kg | 0.08 mg/kg |
